Assay results taken from PMC8742467, “Therapeutical interference with the epigenetic landscape of germ cell tumors: a comparative drug study and new mechanistical insights” (Clinical Epigenetics, 2022).

Assays:
Format in all cases: cell-based, Human
CC (JAR) = experiment: Flow cytometry apoptosis (Annexin V/PI), CC; settings: EC50, 16 h
Protocol: (§1) For Annexin V/PI staining, cells were washed with Annexin V Binding Buffer before being resuspended in 70 µl Annexin V Binding Buffer and 2.5 μl Annexin V FITC-conjugate (both Miltenyi Biotec, Bergisch Gladbach, Germany) and 15 µg PI (Sigma-Aldrich, Taufkirchen, Germany) and incubated in the dark at room temperature for 15 min. 500 µl of Annexin V Binding Buffer was added before measurement. For the cell cycle analysis, cells were washed with PBS (phosphate buffered saline), fixed by ice cold 70% ethanol and stained with 2 µg/ml PI and 200 µg/ml RNaseA (Quiagen, Hilden, Germany 100 mg/ml) in PBS shortly before every measurement. At least 5 × 10^4 cells were counted and analyzed using the MACSQuant software v 2.13.0.

fibroblast control cells = experiment: Flow cytometry apoptosis (Annexin V/PI), fibroblasts; settings: EC50, 16 h
Protocol: as §1

[1] = test system: H2AK119ub in 2102EP cells; experiment: Western blot of histone extracts; settings: after 48 h of treatment
Protocol: Western Blots were performed as described previously. In total, 20 µg of whole cell protein lysates or 3 µg of histone extract were used for western blotting. β-Actin was used as housekeeper and loading control for whole cell lysates. Western blots of histone extracts were stained with Coomassie Brilliant Blue R 250 (Roth, Karlsruhe, Germany) and total H3 or H4 antibody to verify equal loading. For antibody details, see supplement (Additional file 12: Table S2 D). The ChemiDoc Imaging System (Bio-Rad Laboratories, Feldkirchen, Germany) was used for detection. Pixel density was analyzed using the ‘Image Lab’ software provided by Bio-Rad.

Compound	apoptosis induction in JAR (CC (JAR))	apoptosis induction in fibroblast control cells (fibroblast control cells)	H2AK119ub by western blot [1]
CCCc1cc(C)[nH]c(=O)c1CNC(=O)c1cc(-c2ccnc(N3CCN(C)CC3)c2)cc2c1cnn2C(C)C [GSK343]	negligible		
O=C1C(=Cc2cccnc2)C(=O)c2ccccc21 [PRT4165]		only a weak apoptosis induction	decreased H2AK119ub
